This passage reports Activity, Ki and IC50 results from ChEMBL document CHEMBL6083240, “Design, synthesis and biological evaluation of arylpropylamine derivatives as potential multi-target antidepressants” (Bioorg Med Chem, 2024).

Data set [1] addresses T1, 5-hydroxytryptamine receptor 2A (Homo sapiens, UniProt P28223). The data set is described as follows: Agonist activity at 5-HT2A in HEK293 cells at 10 uM incubated for 60 mins by FLIPR assay relative to control. Type of data set: functional, cell-based.
In data set [2] the target is Sodium-dependent serotonin transporter (Rattus norvegicus, UniProt P31652). Put plainly: Displacement of [3H]-paroxetine from SERT in rat cerebral cortex incubated for 10 mins by liquid scintillation counting method. It is filed as tissue-based. (Loss of bound radioactivity is the signal in a displacement assay; it reports binding, not function.)
Sodium-dependent serotonin transporter, sequence (P31652 whole entry): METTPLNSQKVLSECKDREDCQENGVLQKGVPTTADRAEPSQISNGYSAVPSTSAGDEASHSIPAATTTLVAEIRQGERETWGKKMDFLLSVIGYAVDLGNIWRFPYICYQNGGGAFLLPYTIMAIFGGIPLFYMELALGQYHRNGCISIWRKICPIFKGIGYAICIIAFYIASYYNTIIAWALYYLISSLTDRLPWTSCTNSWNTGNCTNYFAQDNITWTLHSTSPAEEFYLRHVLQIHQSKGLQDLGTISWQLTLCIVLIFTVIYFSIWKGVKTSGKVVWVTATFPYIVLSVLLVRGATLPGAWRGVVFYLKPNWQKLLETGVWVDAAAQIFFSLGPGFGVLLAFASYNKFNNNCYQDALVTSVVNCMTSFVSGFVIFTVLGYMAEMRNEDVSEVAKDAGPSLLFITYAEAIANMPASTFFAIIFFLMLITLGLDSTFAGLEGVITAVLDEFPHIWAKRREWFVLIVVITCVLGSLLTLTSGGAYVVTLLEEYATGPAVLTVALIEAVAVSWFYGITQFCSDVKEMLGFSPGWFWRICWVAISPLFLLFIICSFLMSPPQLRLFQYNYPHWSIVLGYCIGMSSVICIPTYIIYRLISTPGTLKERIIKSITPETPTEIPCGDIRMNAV
Data set [3] concerns the target Transporter (Rattus norvegicus, UniProt Q63380). The data set is described as follows: Displacement of [3H]-nisoxetine from NET in rat hippocampal membrane incubated for 8 hrs by liquid scintillation counting method. Type of data set: cell membranes, Hippocampus.
The target of data set [4] is T2, Alpha-1A adrenergic receptor (Rattus norvegicus, UniProt P43140).
T2 sequence (P43140 whole entry): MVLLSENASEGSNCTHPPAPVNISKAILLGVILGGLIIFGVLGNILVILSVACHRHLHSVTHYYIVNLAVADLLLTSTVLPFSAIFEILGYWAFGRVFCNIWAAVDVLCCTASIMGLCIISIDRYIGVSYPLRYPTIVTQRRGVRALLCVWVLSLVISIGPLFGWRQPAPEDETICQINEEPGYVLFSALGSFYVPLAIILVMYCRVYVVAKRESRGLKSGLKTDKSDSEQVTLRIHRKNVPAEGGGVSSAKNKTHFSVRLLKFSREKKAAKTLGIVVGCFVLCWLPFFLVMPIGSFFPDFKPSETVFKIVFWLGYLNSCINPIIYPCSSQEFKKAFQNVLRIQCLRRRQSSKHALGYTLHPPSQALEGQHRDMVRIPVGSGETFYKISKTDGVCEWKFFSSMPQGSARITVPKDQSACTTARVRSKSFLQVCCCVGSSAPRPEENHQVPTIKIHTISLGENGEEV
The data set is described as follows: Displacement of [3H]-prazosin from adrenergic alpha-1 receptor in rat cerebral cortex incubated for 60 mins by liquid scintillation counting method. It is filed as toxicity, tissue-based.

Data set [5] concerns the target T3, 5-hydroxytryptamine receptor 2C (Rattus norvegicus, UniProt P08909).
T3 sequence (P08909 whole entry): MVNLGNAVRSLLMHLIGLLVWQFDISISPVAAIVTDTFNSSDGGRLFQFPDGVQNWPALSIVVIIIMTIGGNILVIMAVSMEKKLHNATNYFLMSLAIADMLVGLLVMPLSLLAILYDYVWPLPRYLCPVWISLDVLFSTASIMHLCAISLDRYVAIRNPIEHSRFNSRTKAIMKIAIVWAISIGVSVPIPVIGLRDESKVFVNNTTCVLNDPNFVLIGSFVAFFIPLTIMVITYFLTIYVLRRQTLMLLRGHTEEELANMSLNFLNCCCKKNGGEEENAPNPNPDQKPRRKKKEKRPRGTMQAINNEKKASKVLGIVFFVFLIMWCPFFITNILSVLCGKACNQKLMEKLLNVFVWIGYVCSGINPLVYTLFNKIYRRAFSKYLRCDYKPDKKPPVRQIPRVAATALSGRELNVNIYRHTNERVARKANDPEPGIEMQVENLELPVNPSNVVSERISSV
The data set is described as follows: Displacement of [3H]-mesulergine from 5-HT2C in rat cerebral cortex incubated for 15 mins by liquid scintillation counting method. Type of data set: tissue-based.

In data set [6] the target is Voltage-gated inwardly rectifying potassium channel KCNH2 (Homo sapiens, UniProt Q12809). The data set is described as follows: Inhibition of human ERG expressed in HEK293 cells by whole-cell patch clamp method. It is filed as toxicity, cell-based. On the technique in general: Patch clamp records ionic current or voltage across a cell membrane.
Voltage-gated inwardly rectifying potassium channel KCNH2, sequence (Q12809 whole entry): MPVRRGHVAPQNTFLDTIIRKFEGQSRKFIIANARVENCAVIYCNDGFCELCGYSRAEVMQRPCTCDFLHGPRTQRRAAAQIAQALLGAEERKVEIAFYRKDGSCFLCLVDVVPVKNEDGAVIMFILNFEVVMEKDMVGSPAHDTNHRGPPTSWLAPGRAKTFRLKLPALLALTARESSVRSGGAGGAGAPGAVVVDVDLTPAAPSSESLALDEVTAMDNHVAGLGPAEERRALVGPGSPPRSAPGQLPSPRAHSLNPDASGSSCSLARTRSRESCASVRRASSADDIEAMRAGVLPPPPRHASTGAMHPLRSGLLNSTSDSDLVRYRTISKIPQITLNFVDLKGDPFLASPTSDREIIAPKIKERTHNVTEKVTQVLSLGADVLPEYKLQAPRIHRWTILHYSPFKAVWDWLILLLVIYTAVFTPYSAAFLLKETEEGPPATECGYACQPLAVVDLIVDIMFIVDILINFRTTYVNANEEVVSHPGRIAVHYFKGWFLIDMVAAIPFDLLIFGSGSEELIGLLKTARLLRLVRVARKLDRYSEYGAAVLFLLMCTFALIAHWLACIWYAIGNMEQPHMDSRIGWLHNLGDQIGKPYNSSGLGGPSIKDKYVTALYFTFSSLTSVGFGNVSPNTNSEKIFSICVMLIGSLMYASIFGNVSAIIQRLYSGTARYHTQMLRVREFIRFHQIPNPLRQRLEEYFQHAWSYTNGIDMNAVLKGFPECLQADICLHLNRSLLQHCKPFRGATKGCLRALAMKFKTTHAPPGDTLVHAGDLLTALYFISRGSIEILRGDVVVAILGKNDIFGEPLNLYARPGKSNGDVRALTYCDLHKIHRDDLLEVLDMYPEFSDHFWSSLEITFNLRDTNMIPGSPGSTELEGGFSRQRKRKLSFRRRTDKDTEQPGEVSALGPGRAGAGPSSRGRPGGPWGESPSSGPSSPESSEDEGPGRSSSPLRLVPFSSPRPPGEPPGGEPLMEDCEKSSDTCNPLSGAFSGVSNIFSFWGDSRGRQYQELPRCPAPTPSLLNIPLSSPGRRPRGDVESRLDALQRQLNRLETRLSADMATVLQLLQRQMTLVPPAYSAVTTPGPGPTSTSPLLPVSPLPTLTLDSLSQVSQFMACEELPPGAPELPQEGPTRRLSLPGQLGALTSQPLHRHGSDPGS
The test system of data set [7] is histamine H1 receptor. Put plainly: Displacement of [3H]-pyrilamine from H1 receptor in guinea pig cerebellum membrane incubated for 60 mins by liquid scintillation counting method. It is filed as toxicity, cell membranes, Cavia porcellus. The conditions noted are these: probe [3H]-pyrilamine.
Data set [8] deals with 5-hydroxytryptamine receptor 2A (Rattus norvegicus, UniProt P14842). Put plainly: Displacement of [3H]-ketanserin from 5-HT2A in rat cerebral cortex incubated for 15 mins by liquid scintillation counting method. Type of data set: tissue-based.
5-hydroxytryptamine receptor 2A (Rattus norvegicus, UniProt P14842), sequence (P14842 whole entry): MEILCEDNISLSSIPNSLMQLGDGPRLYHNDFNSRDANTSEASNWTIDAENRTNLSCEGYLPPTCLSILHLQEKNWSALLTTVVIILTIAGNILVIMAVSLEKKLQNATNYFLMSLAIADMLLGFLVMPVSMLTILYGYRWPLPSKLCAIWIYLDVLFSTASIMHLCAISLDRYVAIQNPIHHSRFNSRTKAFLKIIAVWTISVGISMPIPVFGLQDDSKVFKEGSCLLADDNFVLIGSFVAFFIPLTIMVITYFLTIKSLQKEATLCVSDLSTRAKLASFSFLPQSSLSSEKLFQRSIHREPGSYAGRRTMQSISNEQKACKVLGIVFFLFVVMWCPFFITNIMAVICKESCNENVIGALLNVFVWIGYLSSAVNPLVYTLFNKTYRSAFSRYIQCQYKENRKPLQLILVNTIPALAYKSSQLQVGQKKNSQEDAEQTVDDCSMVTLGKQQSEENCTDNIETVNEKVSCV
In data set [9] the target is 5-hydroxytryptamine receptor 2C (Homo sapiens, UniProt P28335). The data set is described as follows: Antagonist activity at 5-HT2C in HEK293 cells incubated for 60 mins by FLIPR assay. It is filed as cell-based.
Data set [10] has as its target T4, 5-hydroxytryptamine receptor 2C (Homo sapiens) (UniProt P28335).
T4 sequence (whole entry): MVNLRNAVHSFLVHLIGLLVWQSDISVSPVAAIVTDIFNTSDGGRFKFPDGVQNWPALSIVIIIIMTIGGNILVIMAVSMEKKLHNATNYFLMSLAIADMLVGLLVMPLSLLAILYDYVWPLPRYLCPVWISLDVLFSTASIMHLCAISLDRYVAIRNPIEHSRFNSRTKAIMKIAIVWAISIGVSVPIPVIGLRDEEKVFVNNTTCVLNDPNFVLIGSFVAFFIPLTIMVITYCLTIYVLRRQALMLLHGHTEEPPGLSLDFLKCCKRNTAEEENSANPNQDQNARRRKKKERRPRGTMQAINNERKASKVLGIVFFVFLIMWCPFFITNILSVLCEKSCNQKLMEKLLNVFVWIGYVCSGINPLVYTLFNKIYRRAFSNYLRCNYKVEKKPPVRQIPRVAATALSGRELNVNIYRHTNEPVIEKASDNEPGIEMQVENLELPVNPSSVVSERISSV
The data set is described as follows: Antagonist activity at 5-HT2C in HEK293 cells at 10 uM incubated for 60 mins by FLIPR assay relative to control. Type of data set: cell-based. Also on record: scale not given: the % may be the effect or the level left. The note with it: filed as antagonist.

Data set [11] addresses T1, 5-hydroxytryptamine receptor 2A. Put plainly: Antagonist activity at 5-HT2A in HEK293 cells at 10 uM incubated for 60 mins by FLIPR assay relative to control. Type of data set: cell-based. More on the design: scale not given: the % may be the effect or the level left. The note with it: filed as antagonist.
Data set [12] addresses Sodium-dependent serotonin transporter (Rattus norvegicus) (UniProt P31652). The data set is described as follows: Antagonist activity at rat cerebral cortex membrane SERT at 10 uM incubated for 10 mins in presence of [3H]5-HT relative to control. It is filed as cell membranes. More on the design: scale not given: the % may be the effect or the level left. The note with it: filed as antagonist.

pIC50, pKi: −log10 of the molar value.

Transporter, sequence (Q63380 whole entry): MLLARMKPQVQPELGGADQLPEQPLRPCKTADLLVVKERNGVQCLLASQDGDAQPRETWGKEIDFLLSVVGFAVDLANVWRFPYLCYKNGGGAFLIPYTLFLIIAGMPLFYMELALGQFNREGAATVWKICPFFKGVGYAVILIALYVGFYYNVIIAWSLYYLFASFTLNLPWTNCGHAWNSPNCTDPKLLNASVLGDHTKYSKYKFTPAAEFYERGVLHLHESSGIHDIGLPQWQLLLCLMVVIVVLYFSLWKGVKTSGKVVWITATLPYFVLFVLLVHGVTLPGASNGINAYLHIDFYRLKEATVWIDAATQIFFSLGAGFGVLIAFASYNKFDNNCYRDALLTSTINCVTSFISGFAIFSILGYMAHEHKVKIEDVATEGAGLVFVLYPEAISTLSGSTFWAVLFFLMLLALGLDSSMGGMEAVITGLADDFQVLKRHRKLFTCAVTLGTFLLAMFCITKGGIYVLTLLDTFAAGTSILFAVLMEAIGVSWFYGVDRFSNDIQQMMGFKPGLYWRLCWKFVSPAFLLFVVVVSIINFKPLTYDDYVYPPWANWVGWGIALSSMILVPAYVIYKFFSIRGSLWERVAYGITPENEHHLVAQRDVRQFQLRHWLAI
T1 sequence (P28223 whole entry): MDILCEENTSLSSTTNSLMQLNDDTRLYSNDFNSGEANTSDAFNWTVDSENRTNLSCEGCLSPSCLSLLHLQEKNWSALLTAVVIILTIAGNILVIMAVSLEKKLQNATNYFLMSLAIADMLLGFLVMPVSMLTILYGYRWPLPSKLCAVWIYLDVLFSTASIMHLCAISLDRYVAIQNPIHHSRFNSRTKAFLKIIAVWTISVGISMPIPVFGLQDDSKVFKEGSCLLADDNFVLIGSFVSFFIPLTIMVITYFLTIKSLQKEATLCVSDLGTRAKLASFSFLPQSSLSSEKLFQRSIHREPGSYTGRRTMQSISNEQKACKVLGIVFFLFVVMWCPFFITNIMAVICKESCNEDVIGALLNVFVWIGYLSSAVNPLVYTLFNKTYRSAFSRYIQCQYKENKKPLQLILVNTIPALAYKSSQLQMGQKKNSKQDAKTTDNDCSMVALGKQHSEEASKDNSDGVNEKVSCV
Sodium-dependent serotonin transporter (Rattus norvegicus), sequence (P31652 whole entry): as the sequence (P31652 whole entry) above

Take `NCCc1c[nH]c2ccc(O)cc12`: in [1], the Activity turned out to be 5.6%.
Take `CN(C)CCC(Oc1cccc2c1OCO2)c1ccc(Cl)cc1` (stereo unspecified): the pKi – broadly, the Ki on a negative log10 scale, so that one unit is a factor of ten – is 7.70 in data set [2] and 7.98 in data set [3].
As to `CN(C)CCC(Oc1cccc2c1OCO2)c1ccc2c(c1)OCO2` (stereo unspecified), the pKi was 6.87 in data set [4]; 6.98 in data set [5]; 8.02 in data set [2]; 8.31 in data set [3]; 7.26 in data set [8]. Besides, the pIC50 (in general, the negative decadic logarithm of the IC50, by convention in mol/L) in data set [6] is 6.43. Besides, affinity in [7] was put at a Ki at 60 min of 426 nM.
For the compound `CNCCC(Oc1cccc2c1OCO2)c1ccc2c(c1)OCO2` (stereo unspecified), the results for the pKi in [2] and in data set [3] were 7.48 and 7.55, respectively.
On the same counts, the results for `CNCCC(Oc1cccc2c1OCO2)c1ccc(F)cc1` (stereo unspecified) are 7.16 and 8.27.
In the same order, the values of `Cc1cccc(C(CCN(C)C)Oc2cccc3c2OCO3)c1` (stereo unspecified) are 6.80 and 6.67.
`Cc1cc2c(cc1Cl)N(C(=O)Nc1ccc(Oc3cccnc3C)nc1)CC2` [SB-242084] showed a pIC50 in data set [9] of 7.71. The compound further gave an Activity in data set [10] of 98.6%.
As to `CN(C)CC[C@H](Oc1cccc2c1OCO2)c1ccc(F)cc1`, the pKi is 6.01 in [4]; 7.15 in data set [5]; 8.48 in [2]; 7.90 in data set [3]; 7.24 in data set [8]. Further, in [6], the pIC50 was 6.04. In addition, the Ki (commonly the equilibrium dissociation constant of an inhibitor or competing ligand from its target) at 60 min in data set [7] was determined as 823 nM.
As to `CN(C)CCC(Oc1cccc2c1OCO2)c1ccccc1` (stereo unspecified), the pKi in data set [2] is 7.01; in data set [3] it was 7.53.
For `CNCCC(Oc1cccc2c1OCO2)c1ccccc1C` (stereo unspecified), the results for the pKi in [2] and in [3] were 7.39 and 7.86, respectively.
In the same order, the values of `CNCCC(Oc1cccc2c1OCO2)c1ccc(F)c(F)c1` (stereo unspecified) are 7.02 and 8.18.
Take `CN(C)CCC(Oc1cccc2c1OCO2)c1ccccc1Cl` (stereo unspecified): the results for the pKi in [2] and in data set [3] were 7.53 and 7.71, respectively.
In the case of `COc1ccccc1C(CCN(C)C)Oc1cccc2c1OCO2` (stereo unspecified), the results for the pKi in [2] and in data set [3] were 6.66 and 6.60, respectively.
In the same order, the values of `COc1ccc(C(CCN(C)C)Oc2cccc3c2OCO3)cc1OC` (stereo unspecified) are 6.61 and 6.65.
In the same order, the values of `CNCCC(Oc1cccc2c1OCO2)c1ccccc1Cl` (stereo unspecified) are 7.24 and 7.58.
In data set [11], `O=C(c1ccc(F)cc1)C1CCN(CCn2c(=O)[nH]c3ccccc3c2=O)CC1` came in with an Activity of 98.3%.
`CN(C)CCC(Oc1cccc2c1OCO2)c1ccc(Cl)c(Cl)c1` (stereo unspecified): the figures for the pKi in data set [2] and in data set [3] were 6.72 and 6.60, respectively.
On to `CN(C)CCC(Oc1cccc2c1OCO2)c1cccc(F)c1` (stereo unspecified), for which the pKi in data set [4] was 5.95; in [5], 7.20; in data set [2], 7.82; in [3], 8.52; in data set [8], 7.05. Besides, the pIC50 in data set [6] is 6.03. The affinity in data set [7], expressed as Ki at 60 min, was 549 nM.
For the compound `CN(C)CCC(Oc1cccc2c1OCO2)c1ccc(F)cc1` (stereo unspecified), the pKi in data set [4] is 5.91; in data set [5], 7.53; in data set [2], 8.38; in [3], 8.55; in [8], 7.45. Also, in data set [6], the pIC50 was 5.95. The Ki at 60 min in [7] came to 937 nM.
As to `CNCCC(Oc1cccc2c1OCO2)c1ccc(OC)c(OC)c1` (stereo unspecified), the results for the pKi in data set [2] and in data set [3] were 6.66 and 7.70, respectively.
For the compound `CNCCC(Oc1cccc2c1OCO2)c1ccc(OC)cc1` (stereo unspecified), the pKi in [2] is 6.96; in [3] it was 7.59.
On the same counts, the results for `CNCCC(Oc1cccc2c1OCO2)c1ccc(C)cc1` (stereo unspecified) are 7.76 and 7.31.
In the same order, the values of `CNCCC(Oc1cccc2c1OCO2)c1ccc(Cl)c(Cl)c1` (stereo unspecified) are 7.36 and 7.82.
Take `CN(C)CCC(Oc1cccc2c1OCO2)c1ccccc1F` (stereo unspecified): the pKi in data set [2] is 7.55; in data set [3] it was 7.76.
In the same order, the values of `CNCCC(Oc1cccc2c1OCO2)c1ccc(Cl)cc1` (stereo unspecified) are 7.11 and 7.83.
Regarding `CN(C)CCC(Oc1cccc2c1OCO2)c1ccc(C(F)(F)F)cc1` (stereo unspecified), the pKi in data set [2] was 6.74; in data set [3], 6.90.
On the same counts, the results for `Cc1ccccc1C(CCN(C)C)Oc1cccc2c1OCO2` (stereo unspecified) are 6.80 and 6.61.
`CN(C)CCC(Oc1cccc2c1OCO2)c1cccc(Cl)c1` (stereo unspecified): the pKi in [2] was 6.99; in data set [3] it was 7.15.
With `CN(C)CCCC1(c2ccc(F)cc2)OCc2cc(C#N)ccc21` (stereo unspecified), in data set [12], the Activity came to 100%.
Turning to `CNCCC(Oc1cccc2c1OCO2)c1cccc(OC)c1` (stereo unspecified), the values for the pKi in data set [2] and in data set [3] were 7.32 and 7.95, respectively.
Consider `CNCCC(Oc1cccc2c1OCO2)c1cccc(F)c1` (stereo unspecified), for which the figures for the negative logarithm of the Ki (pKi) in data set [2] and in data set [3] were 7.23 and 8.12, respectively.
For the compound `CNCCC(Oc1cccc2c1OCO2)c1ccccc1OC` (stereo unspecified), the pKi in [2] is 7.19; in data set [3], 7.52.
Turning to `CNCCC(Oc1cccc2c1OCO2)c1cccc(Cl)c1` (stereo unspecified), the pKi in [2] was 6.95; in data set [3], 8.32.
Take `CN(C)CCC(Oc1cccc2c1OCO2)c1ccc(F)c(F)c1` (stereo unspecified): the pKi in [2] was 6.62; in data set [3], 6.86.
For the compound `COc1cccc(C(CCN(C)C)Oc2cccc3c2OCO3)c1` (stereo unspecified), the figures for the pKi in data set [2] and in [3] were 6.69 and 6.57, respectively.
Regarding `NCCC(Oc1cccc2c1OCO2)c1ccccc1` (stereo unspecified), the negative logarithm of the Ki (pKi) was 6.66 in data set [2] and 7.29 in data set [3].
On the same counts, the results for `Cc1ccc(C(CCN(C)C)Oc2cccc3c2OCO3)cc1` (stereo unspecified) are 7.16 and 6.71.
Consider `CNCCC(Oc1cccc2c1OCO2)c1ccccc1` (stereo unspecified), for which the pKi in data set [4] is 6.00; in [5], 6.87; in data set [2], 7.70; in data set [3], 8.38; in [8] it was 6.81. Also, the pIC50 in data set [6] is 6.09. The affinity in data set [7] corresponds to a Ki at 60 min of 669 nM.
In the case of `CNCCC(Oc1cccc2c1OCO2)c1cccc(C)c1` (stereo unspecified), the results for the pKi in data set [2] and in [3] were 7.30 and 7.69, respectively.
With `COc1ccc(C(CCN(C)C)Oc2cccc3c2OCO3)cc1` (stereo unspecified), the pKi is 6.72 in data set [2] and 6.66 in [3].
On the same counts, the results for `CNCCC(Oc1cccc2c1OCO2)c1ccccc1F` (stereo unspecified) are 7.07 and 7.69.
In the same order, the values of `CNCCC(Oc1cccc2c1OCO2)c1ccc(C(F)(F)F)cc1` (stereo unspecified) are 7.13 and 7.51.
